{"source": "PubChem BioAssay AID2060888", "about": "(Molecular Pharmacology Branch, DTP, NCI, 2025)", "tested_on": "695427-040-R-J1-PDC complex spheroid viability", "test": "Anticancer human tumor 695427-040-R-J1-PDC patient-derived colon adenocarcinoma cell line growth inhibition [RAS]", "conditions": "for viability, T/C: stronger effect = lower value", "procedure,_shortened": "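Multi-cell-type spheroids: tumor cells plus HUVEC endothelial cells and mesenchymal stem cells. RAS-pathway inhibitors were combined with targeted agents, each dosed in half-log steps down from clinical Cmax, or from 10 microM when Cmax was unknown.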", "note": "pIC50: −log10 of the molar value.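 Further: viability read after seven days of drug exposure.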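 Wherever viability, T/C is given: 100% = DMSO vehicle control viability.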", "data": [{"smiles": "C=CC(=O)Nc1cc(Nc2nccc(-c3cn(C)c4ccccc34)n2)c(OC)cc1N(C)CCN(C)C", "note": "+ C#Cc1c(F)ccc2cc(O)cc(-c3ncc4c(N5CC6CCC(C5)N6)nc(OCC56CCCN5CC(F)C6)nc4c3F)c12", "values": [{"measurement": "pIC50", "setting": "curve of first compound, second compound 0.0316 µM", "value": 6.46}, {"measurement": "pIC50", "setting": "curve of first compound, second compound 0.1 µM", "value": 6.40}, {"measurement": "pIC50", "setting": "curve of first compound, second compound 0.316 µM", "value": 6.62}, {"measurement": "pIC50", "setting": "curve of first compound, second compound 1 µM", "value": 6.78}, {"measurement": "pIC50", "setting": "curve of first compound, second compound 3.16 µM", "value": 7.29}, {"measurement": "pIC50", "setting": "curve of first compound, second compound 10 µM", "value": "> 8.50"}, {"measurement": "viability, T/C", "setting": "second compound 0.0316 µM, first compound 0.00316 µM", "value": 99.4, "unit": "%"}, {"measurement": "viability, T/C", "setting": "second compound 0.0316 µM, first compound 0.01 µM", "value": 92.1, "unit": "%"}, {"measurement": "viability, T/C", "setting": "second compound 0.0316 µM, first compound 0.0316 µM", "value": 92.3, "unit": "%"}, {"measurement": "viability, T/C", "setting": "second compound 0.0316 µM, first compound 0.1 µM", "value": 69.6, "unit": "%"}, {"measurement": "viability, T/C", "setting": "second compound 0.0316 µM, first compound 0.316 µM", "value": 53.1, "unit": "%"}, {"measurement": "viability, T/C", "setting": "second compound 0.0316 µM, first compound 1 µM", "value": 31.5, "unit": "%"}, {"measurement": "viability, T/C", "setting": "second compound 0.1 µM, first compound 0.00316 µM", "value": 93.1, "unit": "%"}, {"measurement": "viability, T/C", "setting": "second compound 0.1 µM, first compound 0.01 µM", "value": 100, "unit": "%"}, {"measurement": "viability, T/C", "setting": "second compound 0.1 µM, first compound 0.0316 µM", "value": 80.9, "unit": "%"}, {"measurement": "viability, T/C", "setting": "second compound 0.1 µM, first compound 0.1 µM", "value": 69.9, "unit": "%"}, {"measurement": "viability, T/C", "setting": "second compound 0.1 µM, first compound 0.316 µM", "value": 58.6, "unit": "%"}, {"measurement": "viability, T/C", "setting": "second compound 0.1 µM, first compound 1 µM", "value": 29.2, "unit": "%"}, {"measurement": "viability, T/C", "setting": "second compound 0.316 µM, first compound 0.00316 µM", "value": 95.8, "unit": "%"}, {"measurement": "viability, T/C", "setting": "second compound 0.316 µM, first compound 0.01 µM", "value": 81, "unit": "%"}, {"measurement": "viability, T/C", "setting": "second compound 0.316 µM, first compound 0.0316 µM", "value": 77.8, "unit": "%"}, {"measurement": "viability, T/C", "setting": "second compound 0.316 µM, first compound 0.1 µM", "value": 61.5, "unit": "%"}, {"measurement": "viability, T/C", "setting": "second compound 0.316 µM, first compound 0.316 µM", "value": 48.1, "unit": "%"}, {"measurement": "viability, T/C", "setting": "second compound 0.316 µM, first compound 1 µM", "value": 27.6, "unit": "%"}, {"measurement": "viability, T/C", "setting": "second compound 1 µM, first compound 0.00316 µM", "value": 72.6, "unit": "%"}, {"measurement": "viability, T/C", "setting": "second compound 1 µM, first compound 0.01 µM", "value": 79.7, "unit": "%"}, {"measurement": "viability, T/C", "setting": "second compound 1 µM, first compound 0.0316 µM", "value": 68.9, "unit": "%"}, {"measurement": "viability, T/C", "setting": "second compound 1 µM, first compound 0.1 µM", "value": 59, "unit": "%"}, {"measurement": "viability, T/C", "setting": "second compound 1 µM, first compound 0.316 µM", "value": 38.7, "unit": "%"}, {"measurement": "viability, T/C", "setting": "second compound 1 µM, first compound 1 µM", "value": 23, "unit": "%"}, {"measurement": "viability, T/C", "setting": "second compound 3.16 µM, first compound 0.00316 µM", "value": 57.7, "unit": "%"}, {"measurement": "viability, T/C", "setting": "second compound 3.16 µM, first compound 0.01 µM", "value": 55.1, "unit": "%"}, {"measurement": "viability, T/C", "setting": "second compound 3.16 µM, first compound 0.0316 µM", "value": 56.6, "unit": "%"}, {"measurement": "viability, T/C", "setting": "second compound 3.16 µM, first compound 0.1 µM", "value": 42.6, "unit": "%"}, {"measurement": "viability, T/C", "setting": "second compound 3.16 µM, first compound 0.316 µM", "value": 30.6, "unit": "%"}, {"measurement": "viability, T/C", "setting": "second compound 3.16 µM, first compound 1 µM", "value": 20, "unit": "%"}, {"measurement": "viability, T/C", "setting": "second compound 10 µM, first compound 0.00316 µM", "value": 39.4, "unit": "%"}, {"measurement": "viability, T/C", "setting": "second compound 10 µM, first compound 0.01 µM", "value": 41.5, "unit": "%"}, {"measurement": "viability, T/C", "setting": "second compound 10 µM, first compound 0.0316 µM", "value": 37.3, "unit": "%"}, {"measurement": "viability, T/C", "setting": "second compound 10 µM, first compound 0.1 µM", "value": 32.4, "unit": "%"}, {"measurement": "viability, T/C", "setting": "second compound 10 µM, first compound 0.316 µM", "value": 25.8, "unit": "%"}, {"measurement": "viability, T/C", "setting": "second compound 10 µM, first compound 1 µM", "value": 15.7, "unit": "%"}]}, {"smiles": "CCN1CCN(Cc2ccc(Nc3ncc(F)c(-c4cc(F)c5nc(C)n(C(C)C)c5c4)n3)nc2)CC1", "values": [{"measurement": "viability, T/C", "setting": "compound 0.00316 µM", "value": "102% [middle of 4 runs]"}, {"measurement": "viability, T/C", "setting": "compound 0.01 µM", "value": "84.3% [middle of 4 runs]"}, {"measurement": "viability, T/C", "setting": "compound 0.0316 µM", "value": "92.2% [middle of 4 runs]"}, {"measurement": "viability, T/C", "setting": "compound 0.1 µM", "value": "102% [middle of 4 runs]"}, {"measurement": "viability, T/C", "setting": "compound 0.316 µM", "value": "98.7% [middle of 4 runs]"}, {"measurement": "pIC50", "setting": "curve of compound", "value": "< 6.00"}]}]}
